The nature of data set [1]: log P determination by HPLC (EEC Directive 79/831 Annex V.A8). It is filed as physicochemical. How it is done: The measurements were carried out using an Agilent 1100 LC system with a 50*4.6 Zorbax Eclipse C18 1.8 μm column (oven temperature 55° C., flow rate 2.0 ml/min).
The following mobile phases were used:
Mobile phase A: acetonitrile+1000 μl of formic acid/l
Mobile phase B: Millipore water+900 μl of formic acid/l

Data set [2] relates to caterpillars of the armyworm (Spodoptera frugiperda). The data set is described as follows: Spodoptera frugiperda test (SPODFR spray treatment). The format is in vivo. The note with it: Spodoptera frugiperda, foliar, read-out: effect in % (caterpillars killed). The text has this:
(§1) Solvent: 78.0 parts by weight of acetone

For data set [3], the system named is green peach aphid (Myzus persicae). The data set is described as follows: Myzus test (MYZUPE spray treatment). The format is in vivo. The settings on record: Myzus persicae, foliar, read-out: effect in % (aphids killed).
Description: Solvent: 78 parts by weight of acetone
as §1

Data set [4] has as its system larvae of the mustard beetle (Phaedon cochleariae). The data set is described as follows: Phaedon test (PHAECO spray treatment). The note with it: Phaedon cochleariae, in Brassica rapa, foliar, read-out: effect in % (beetle larvae killed).
The mark [5] stands for this setting: reversed-phase HPLC, Zorbax Eclipse C18 column, determined by HPLC according to EEC Directive 79/831 Annex V.A8, read-out: log P.
Where [6] appears, read: application rate 100 g/ha, maize leaf discs.
The mark [7] stands for this setting: application rate 100 g/ha, Chinese cabbage leaf discs.

Read-outs that look alike come from different tables or passages of the source.

Regarding `Cc1cc(C#N)cc(C(=O)NC(C)C)c1NC(=O)c1cc(Cn2nnnc2C(F)(C(F)(F)F)C(F)(F)F)nn1-c1ncccc1Cl` [Example 500], the chromatographic logP in data set [1] (setting [5]) was determined as 3.5. Also, the pest or weed control at 100 g/ha in data set [2] (setting [6]), in data set [3] (setting [7]) and in data set [4] was not below 80% each time.
As for `Cc1cc(Br)cc(C(=O)NC(C)C)c1NC(=O)c1cc(Cn2nnnc2C(F)(F)F)nn1-c1ncccc1Br` [Example 501], the chromatographic logP in data set [1] (setting [5]) was determined as 3.27. The pest or weed control at 100 g/ha in data set [2] (setting [6]), in data set [3] (setting [7]) and in data set [4] was not below 80% each time.
Regarding `CCNC(=O)c1cc(I)cc(C)c1NC(=O)c1cc(Cn2nnnc2C(F)(F)F)nn1-c1ncccc1Br` [Example 503], the chromatographic logP in data set [1] (setting [5]) was 3.16. The pest or weed control at 100 g/ha in data set [2] (setting [6]), in data set [3] (setting [7]) and in data set [4] was not below 80% throughout.
Take `Cc1cc(I)cc(C(=O)NC(C)C)c1NC(=O)c1cc(Cn2nnnc2C(F)(F)F)nn1-c1ncccc1Br` [Example 504]: the chromatographic logP in data set [1] (setting [5]) was 3.41. The pest or weed control at 100 g/ha in data set [2] (setting [6]), in data set [3] (setting [7]) and in data set [4] was not below 80% each time.
Turning to `CCNC(=O)c1cc(Br)cc(C)c1NC(=O)c1cc(Cn2nnnc2C(F)(F)F)nn1-c1ncccc1Br` [Example 505], in data set [1] (setting [5]), the chromatographic logP was determined as 3.02. In addition, the pest or weed control at 100 g/ha in data set [2] (setting [6]), in data set [3] (setting [7]) and in data set [4] was not below 80% throughout.
With `CNC(=O)c1cc(I)cc(C)c1NC(=O)c1cc(Cn2nnnc2C(F)(F)F)nn1-c1ncccc1Br` [Example 506], the chromatographic logP in data set [1] (setting [5]) was found to be 2.91. The pest or weed control at 100 g/ha in data set [2] (setting [6]), in data set [3] (setting [7]) and in data set [4] was not below 80% throughout.
In the case of `Cc1cc(Br)cc(C(=O)NC(C)(C)C)c1NC(=O)c1cc(Cn2nnnc2C(F)(F)F)nn1-c1ncccc1Br` [Example 507], the chromatographic logP in data set [1] (setting [5]) turned out to be 3.65. The pest or weed control at 100 g/ha in data set [2] (setting [6]), in data set [3] (setting [7]) and in data set [4] was not below 80% each time.
In the case of `Cc1cc(C#N)cc(C(=O)NC(C)(C)C)c1NC(=O)c1cc(Cn2nnnc2C(F)(F)F)nn1-c1ncccc1F` [Example 509], the chromatographic logP in data set [1] (setting [5]) came out at 2.92. Besides, the pest or weed control at 100 g/ha in data set [2] (setting [6]), in data set [3] (setting [7]) and in data set [4] was not below 80% each time.
Consider `CNC(=O)c1cc(Cl)cc(C)c1NC(=O)c1cc(C(C)n2nnnc2C(F)(F)F)nn1-c1ncccc1Cl` (centres unmarked) [Example 510], for which the chromatographic logP in data set [1] (log P) came to 2.86. Further, the pest or weed control at 100 g/ha in data set [2] (in Zea mays), in data set [3] (in Brassica rapa) and in data set [4] was not below 80% each time.
On to `Cc1cc(Cl)cc(C(=O)NC(C)(C)C)c1NC(=O)c1cc(C(C)n2nnnc2C(F)(F)F)nn1-c1ncccc1Cl` (centres unmarked) [Example 511], for which the chromatographic logP in data set [1] (log P) was 3.75. Moreover, the pest or weed control at 100 g/ha in data set [2] (in Zea mays), in data set [3] (in Brassica rapa) and in data set [4] was not below 80% throughout.
For `Cc1cc(Cl)cc(C(=O)NC(C)C)c1NC(=O)c1cc(Cn2nnnc2C(F)(F)C(F)(F)F)nn1-c1ncccc1Br` [Example 513], in data set [1] (setting [5]), the chromatographic logP is 3.54. Moreover, the pest or weed control at 100 g/ha in data set [2] (setting [6]), in data set [3] (setting [7]) and in data set [4] was not below 80% each time.
Take `Cc1cc(Cl)cc(C(=O)NC2CC2)c1NC(=O)c1cc(Cn2nnnc2C(F)(F)C(F)(F)F)nn1-c1ncccc1Br` [Example 515]: in data set [1] (setting [5]), the chromatographic logP was determined as 3.29. Besides, the pest or weed control at 100 g/ha in data set [2] (setting [6]), in data set [3] (setting [7]) and in data set [4] was not below 80% throughout.
With `CNC(=O)c1cc(C#N)cc(C)c1NC(=O)c1cc(Cn2nnnc2C(F)(F)C(F)(F)F)nn1-c1ncccc1Br` [Example 516], in data set [1] (setting [5]), the chromatographic logP is 2.72. Besides, the pest or weed control at 100 g/ha in data set [2] (setting [6]), in data set [3] (setting [7]) and in data set [4] was not below 80% in each case.
With `Cc1cc(C#N)cc(C(=O)NC(C)(C)C)c1NC(=O)c1cc(Cn2nnnc2C(F)(F)C(F)(F)F)nn1-c1ncccc1Br` [Example 518], the chromatographic logP in data set [1] (setting [5]) amounted to 3.47. Moreover, the pest or weed control at 100 g/ha in data set [2] (setting [6]), in data set [3] (setting [7]) and in data set [4] was not below 80% each time.
Take `CCNC(=O)c1cc(C#N)cc(C)c1NC(=O)c1cc(Cn2nnnc2C(F)(F)C(F)(F)F)nn1-c1ncccc1Br` [Example 519]: the chromatographic logP in data set [1] (setting [5]) was 2.94. Moreover, the pest or weed control at 100 g/ha in data set [2] (setting [6]), in data set [3] (setting [7]) and in data set [4] was not below 80% in each case.
`CCNC(=O)c1cc(C#N)cc(C)c1NC(=O)c1cc(C(C)n2nnnc2C(F)(F)F)nn1-c1ncccc1Cl` (centres unmarked) [Example 521] gave a chromatographic logP in data set [1] (log P) of 2.74. Moreover, the pest or weed control at 100 g/ha in data set [2] (in Zea mays), in data set [3] (in Brassica rapa) and in data set [4] was not below 80% in each case.
Take `Cc1cc(C#N)cc(C(=O)NC2CC2)c1NC(=O)c1cc(Cn2nnnc2C(F)(F)F)nn1-c1ccccc1Cl` [Example 525]: the chromatographic logP in data set [1] (setting [5]) was 2.95. Besides, the pest or weed control at 100 g/ha in data set [2] (setting [6]), in data set [3] (setting [7]) and in data set [4] was not below 80% throughout.
With `Cc1cc(C#N)cc(C(=O)NCC2CC2)c1NC(=O)c1cc(Cn2nnnc2C(F)(F)F)nn1-c1ccccc1Cl` [Example 526], in data set [1] (setting [5]), the chromatographic logP turned out to be 3.25. Also, the pest or weed control at 100 g/ha in data set [2] (setting [6]), in data set [3] (setting [7]) and in data set [4] was not below 80% in each case.
Consider `Cc1cc(C#N)cc(C(=O)NC(C)(C)C)c1NC(=O)c1cc(Cn2nnc(C(F)(F)F)n2)nn1-c1c(F)cccc1Cl` [Example 528], for which the chromatographic logP in data set [1] (setting [5]) amounted to 3.88. The pest or weed control at 100 g/ha in data set [2] (setting [6]), in data set [3] (setting [7]) and in data set [4] was not below 80% throughout.
Turning to `CNC(=O)c1cc(C#N)cc(C)c1NC(=O)c1cc(Cn2nnc(C(F)(F)F)n2)nn1-c1c(F)cccc1Cl` [Example 529], the chromatographic logP in data set [1] (setting [5]) came to 3.13. For the same molecule, the pest or weed control at 100 g/ha in data set [2] (setting [6]), in data set [3] (setting [7]) and in data set [4] was not below 80% each time.
For `CCC(C)NC(=O)c1cc(C#N)cc(C)c1NC(=O)c1cc(Cn2nnc(C(F)(F)F)n2)nn1-c1ccccc1Cl` (centres unmarked) [Example 530], the chromatographic logP in data set [1] (setting [5]) was found to be 3.81. Moreover, the pest or weed control at 100 g/ha in data set [2] (setting [6]), in data set [3] (setting [7]) and in data set [4] was not below 80% throughout.
In the case of `CCNC(=O)c1cc(C#N)cc(C)c1NC(=O)c1cc(Cn2nnc(C(F)(F)C(F)(F)F)n2)nn1-c1ccccc1Cl` [Example 532], the chromatographic logP in data set [1] (setting [5]) was determined as 3.87. The pest or weed control at 100 g/ha in data set [2] (setting [6]), in data set [3] (setting [7]) and in data set [4] was not below 80% in each case.
Take `Cc1cc(C#N)cc(C(=O)NCC(C)C)c1NC(=O)c1cc(Cn2nnc(C(F)(F)F)n2)nn1-c1ccccc1Cl` [Example 533]: the chromatographic logP in data set [1] (setting [5]) is 3.84. Further, the pest or weed control at 100 g/ha in data set [2] (setting [6]), in data set [3] (setting [7]) and in data set [4] was not below 80% throughout.

Values taken from patent US8324390B2, “Tetrazole-substituted anthranilamides as pesticides” (Bayer CropScience AG, priority 2008, dated 2012).
